For orientation: IC50 means the concentration that gives 50% inhibition. The low end stands for inhibition by little substance, the high end for a need for much substance.

The target in this test is T1, Ubiquitin-conjugating enzyme E2 N (Homo sapiens, UniProt P61088).
T1 sequence (P61088 whole entry): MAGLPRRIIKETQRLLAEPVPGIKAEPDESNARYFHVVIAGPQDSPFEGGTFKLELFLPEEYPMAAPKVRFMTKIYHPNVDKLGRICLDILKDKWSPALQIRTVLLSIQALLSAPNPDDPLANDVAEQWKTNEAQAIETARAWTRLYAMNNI
In words: concentration-dependent UBC13 chain formation blockade – biochemical, TR-FRET, reconfirmation, dose response (AID 493182).
`COc1ccc(CN=Nc2cc(C)nc3ccc(OC)cc23)c(OC)c1` had an IC50 of 6.39 µM.

Consider `CC(C)NC(=S)NNC1=c2cc(C(C)C)ccc2=NC1=O` [SMR000242097], for which the midpoint of inhibition, the IC50, lay at 3.56 µM.

Turning to `N=C(N)C1=CC(=O)/C(=C/C=c2ccc(=C(N)N)cc2)C=C1` [(4E)-4-[2-[4-[bis(azanyl)methylidene]cyclohexa-2,5-dien-1-ylidene]ethylidene]-3-oxidanylidene-cyclohexa-1,5-diene-1-carboximidamide;2-oxidanylethanesulfonic acid], the IC50 is 2.8 µM.

`O=C1Nc2ccc([N+](=O)[O-])cc2C1=NNC(=S)NCC1CCCO1` (stereo not given) had an IC50 of 0.664 µM. This IC50 is about 4.2-fold lower than that of the compound before.

Compound `CCN(CC)CCOC(=O)c1ccc(N=CC(C#N)c2nc(-c3ccc(OC)cc3)cs2)cc1` (stereo not given) [4-[[(Z)-2-cyano-2-[4-(4-methoxyphenyl)-2-thiazolyl]ethenyl]amino]benzoic acid 2-(diethylamino)ethyl ester] displayed an IC50 of 4.3 µM.

`CC1=CC(C)(C)N2C(=O)/C(=N\NC(N)=S)c3cccc1c32` [SMR000218901] gave an IC50 of 4.79 µM.

With `CCN(CC)CCOC(=O)c1ccc(N=CC(C#N)c2nc(-c3ccc4c(c3)OCO4)cs2)cc1` (stereo not given) [2-(diethylamino)ethyl 4-[[(Z)-2-[4-(1,3-benzodioxol-5-yl)-1,3-thiazol-2-yl]-2-cyano-ethenyl]amino]benzoate], the IC50 is 5.07 µM.

`C#CCOCCOCCOCCNc1nc(N2CCN(C(=O)[C@H](Cc3cc4ccccc4[nH]3)n3cc([C@@H](N)C(C)CC)nn3)CC2)nc(N2CCN(C(=O)[C@H](Cc3cc4ccccc4[nH]3)n3cc([C@@H](N)Cc4ccc(O)cc4)nn3)CC2)n1` (stereo not given in full) [SMR000391146] showed an IC50 of 6.27 µM. This IC50 and that of the compound before are within 1.5-fold of each other.

In the case of `C#CCOCCOCCOCCNc1nc(N2CCN(C(=O)CCCCCCCCCCNC(=O)Cn3cc(CCCCCN)nn3)CC2)nc(N2CCN(C(=O)CCCCCCCCCCNC(=O)Cn3cc(C[C@@H](C)O)nn3)CC2)n1` [KG-TG], the IC50 was 7.41 µM.

For the compound `CCN(CC)CCOC(=O)c1ccc(N=CC(C#N)c2nc(-c3cc4ccccc4oc3=O)cs2)cc1` (stereo not given) [2-(diethylamino)ethyl 4-[[(Z)-2-cyano-2-[4-(2-oxochromen-3-yl)-1,3-thiazol-2-yl]ethenyl]amino]benzoate], the IC50 was 3.5 µM. Compared with the last compound, the IC50 is about 2.1-fold lower.

For `COC(=O)c1ccc(CN2C(=O)C(=NNC(N)=S)c3ccccc32)o1`, the IC50 was > 20 µM.

In turn, `C#CCOCCOCCOCCNc1nc(N2CCN(C(=O)[C@H](CCCN=C(N)N)n3cc(C(N)[C@H](C)CC)nn3)CC2)nc(N2CCN(C(=O)[C@H](CCCN=C(N)N)n3cc(C(N)[C@@H](C)CC)nn3)CC2)n1` (stereo not given in full) [MLS002473475] gave an IC50 of 19.3 µM.

As to `C#CCOCCOCCOCCNc1nc(N2CCN(C(=O)CCCCCCCCCCNC(=O)Cn3cc(CCCCCN)nn3)CC2)nc(N2CCN(C(=O)CCCCCCCCCCNC(=O)[C@H](CO)n3cc(CCCSC)nn3)CC2)n1` [MLS002153667], inhibition was half-maximal at 4.08 µM (IC50).

Take `CCOC(=O)c1c(C)c2c(n1C)CCCC2N=O` (stereo not given) [MLS000026784]: the IC50 was 8.75 µM. Against the preceding compound, the IC50 is about 2.1-fold higher.

`C#CCOCCOCCOCCNc1nc(N2CCN(C(=O)CCCCCCCCCCNC(=O)[C@H](CO)n3cc(CCCSC)nn3)CC2)nc(N2CCN(C(=O)CCCCCCCCCCNC(=O)[C@H](CCCCN)n3cc(CCO)nn3)CC2)n1` [SMR001318322] showed an IC50 of 5.71 µM.

`COc1ccc2nc(C)cc(N=NCc3ccc(F)cc3)c2c1` [N-[(4-fluorophenyl)methylideneamino]-6-methoxy-2-methyl-4-quinolinamine] returned an IC50 of 10.1 µM.

Take `C#CCOCCOCCOCCNc1nc(N2CCN(C(=O)CCCCCCCCCCNC(=O)[C@@H](CCSC)n3cc(CCO)nn3)CC2)nc(N2CCN(C(=O)CCCCCCCCCCNC(=O)[C@H](CO)n3cc(CCCCCN)nn3)CC2)n1` [MLS002153734]: the IC50 is 4.24 µM. This IC50 lies about 2.4-fold lower than the previous one.

As for `C#CCOCCOCCOCCNc1nc(N2CCN(C(=O)[C@H](Cc3cc4ccccc4[nH]3)n3cc([C@@H](N)CC(C)C)nn3)CC2)nc(N2CCN(C(=O)[C@H](Cc3cc4ccccc4[nH]3)n3cc([C@@H](N)CC(C)C)nn3)CC2)n1` [LW-LW], the midpoint of inhibition, the IC50, lay at 6.4 µM.

`C#CCOCCOCCOCCNc1nc(N2CCN(C(=O)CCCCCCCCCCNC(=O)Cn3cc(CCCCCN)nn3)CC2)nc(N2CCN(C(=O)CCCCCCCCCCNC(=O)Cn3cc(CCCCCN)nn3)CC2)n1` [SMR001231146] showed an IC50 of 3.36 µM.

As for `O=C1N=c2ccccc2=C1NNC(=S)NCC1CCCO1` (stereo not given), the IC50 stood at 0.967 µM.

In turn, `C#CCOCCOCCOCCNc1nc(N2CCN(C(=O)CCCCCCCCCCNC(=O)[C@H]([C@@H](C)CC)n3cc(CCCCCN)nn3)CC2)nc(N2CCN(C(=O)CCCCCCCCCCNC(=O)[C@H](CCCCN)n3cc(CCCC(=O)O)nn3)CC2)n1` [KI-EK] came in with an IC50 of 6.08 µM.

For the compound `C#CCOCCOCCOCCNc1nc(N2CCN(C(=O)CCCCCCCCCCNC(=O)[C@H](CCCCN)n3cc(C)nn3)CC2)nc(N2CCN(C(=O)CCCCCCCCCCNC(=O)[C@@H]([C@H](C)CC)n3cc(CCCCCN)nn3)CC2)n1` [MLS002153655], inhibition was half-maximal at 2.23 µM (IC50).

For the compound `C#CCOCCOCCOCCNc1nc(N2CCN(C(=O)CCCCCCCCCCNC(=O)Cn3cc(CCCCCN)nn3)CC2)nc(N2CCN(C(=O)CCCCCCCCCCNC(=O)[C@H]([C@@H](C)CC)n3cc(CCCCCN)nn3)CC2)n1` [MLS002153714], the IC50 is 2.29 µM.

On to `C#CCOCCOCCOCCNc1nc(N2CCN(C(=O)C([C@@H](C)CC)n3cc(C(N)COC(=O)C(F)(F)F)nn3)CC2)nc(N2CCN(C(=O)[C@H](CCCCN)n3cc(C(N)CC(C)C)nn3)CC2)n1` (stereo not given in full) [SMR000453712], for which half-maximal inhibition (IC50) required 15.3 µM.

`C#CCOCCOCCOCCNc1nc(N2CCN(C(=O)CCCCCCCCCCNC(=O)[C@H]([C@@H](C)CC)n3cc(CCCCCN)nn3)CC2)nc(N2CCN(C(=O)CCCCCCCCCCNC(=O)[C@H]([C@@H](C)CC)n3cc(CCCCN=C(N)N)nn3)CC2)n1` [MLS002153718]: inhibition was half-maximal at 2.19 µM (IC50). Against the preceding compound, the IC50 is about 7-fold lower.

The compound `CC1CC(C)(C)N2C(=O)/C(=N\NC(N)=S)c3cccc1c32` (stereo not given) [SMR000414933] registered an IC50 of 4.95 µM.

Consider `CCOc1ccc(-c2csc(NC(=O)c3cccc(-n4c(O)ccc4O)c3)n2)cc1` [SMR000319795], for which the IC50 was > 20 µM.

In turn, `C#CCOCCOCCOCCNc1nc(N2CCN(C(=O)[C@H](CCCCN)n3cc([C@@H](N)C(C)CC)nn3)CC2)nc(N2CCN(C(=O)[C@H](Cc3ccc(O)cc3)n3cc([C@@H](N)C(C)CC)nn3)CC2)n1` (stereo not given in full) [SMR000391090] registered an IC50 of 10.2 µM.

Compound `C#CCOCCOCCOCCNc1nc(N2CCN(C(=O)CCCCCCCCCCNC(=O)[C@H]([C@@H](C)CC)n3cc(CCCCN=C(N)N)nn3)CC2)nc(N2CCN(C(=O)CCCCCCCCCCNC(=O)[C@@H]([C@H](C)O)n3cc(C)nn3)CC2)n1` [GT-RI] displayed an IC50 of 4.63 µM. Against the preceding compound, the IC50 is about 2.2-fold lower.

Compound `COCCNC(=S)NN=C1C(=O)Nc2ccc([N+](=O)[O-])cc21` [1-(2-methoxyethyl)-3-[(5-nitro-2-oxoindol-3-yl)amino]thiourea] displayed an IC50 of 1.52 µM.

Turning to `NC(=S)NN=C1C(=O)N(CCCl)c2ccccc21`, it took 10.8 µM to reach half-maximal inhibition (IC50). Against the preceding compound, the IC50 is about 7.1-fold higher.

`C#CCOCCOCCOCCNc1nc(N2CCN(C(=O)CCCCCCCCCCNC(=O)[C@@H](CCC(=O)O)n3cc(CCCCCN)nn3)CC2)nc(N2CCN(C(=O)CCCCCCCCCCNC(=O)[C@H]([C@@H](C)CC)n3cc(CCCCCN)nn3)CC2)n1` [KI-KE] displayed a half-inhibitory concentration (IC50) of 6.61 µM.

Compound `C#CCOCCOCCOCCNc1nc(N2CCN(C(=O)CCCCCCCCCCNC(=O)[C@H](CCCCN)n3cc(C)nn3)CC2)nc(N2CCN(C(=O)CCCCCCCCCCNC(=O)[C@H](CCCN=C(N)N)n3cc(C[C@@H](C)CC)nn3)CC2)n1` [MLS002153614] registered an IC50 of 2.18 µM. Against the preceding compound, the IC50 is about 3-fold lower.

The compound `O=C1Nc2ccccc2/C1=N/NC(=S)Nc1ccc(O)cc1` [1-(4-hydroxyphenyl)-3-[(2-oxidanylideneindol-3-yl)amino]thiourea] came in with an IC50 of 0.763 µM.

Compound `CC(=O)N1N=C(C2C(=O)N(C)C(=O)N(C)C2=O)CC1c1ccccc1` (stereo not given) [5-(1-acetyl-5-phenylpyrazolidin-3-ylidene)-1,3-dimethyl-1,3-diazinane-2,4,6-trione] came in with an IC50 of 19.5 µM. This IC50 is about 26-fold higher than that of the compound before.

With `C#CCOCCOCCOCCNc1nc(N2CCN(C(=O)CCCCCCCCCCNC(=O)[C@H](CCCCN)n3cc(CCO)nn3)CC2)nc(N2CCN(C(=O)CCCCCCCCCCNC(=O)[C@H](CCCCN)n3cc(CCCC(=O)O)nn3)CC2)n1` [MLS002153608], the IC50 is 10.4 µM.

Consider `C#CCOCCOCCOCCNc1nc(N2CCN(C(=O)[C@H](Cc3cc4ccccc4[nH]3)n3cc([C@@H](N)C(C)CC)nn3)CC2)nc(N2CCN(C(=O)[C@H](CCCCN)n3cc([C@@H](N)CC(C)C)nn3)CC2)n1` (stereo not given in full) [MLS000562581], for which the midpoint of inhibition, the IC50, lay at 2.07 µM.

The compound `C#CCOCCOCCOCCNc1nc(N2CCN(C(=O)[C@H](CCCCN)n3cc([C@@H](N)C(C)CC)nn3)CC2)nc(N2CCN(C(=O)[C@H](Cc3cc4ccccc4[nH]3)n3cc([C@@H](N)CC(C)C)nn3)CC2)n1` (stereo not given in full) [SMR000391070] yielded an IC50 of 2.07 µM.

As for `COc1cc(C2c3c(-c4cccs4)n[nH]c3OC(=N)C2C#N)cc(OC)c1O` (stereo not given) [SMR000275523], the IC50 stood at 1.47 µM.

For `C#CCOCCOCCOCCNc1nc(N2CCN(C(=O)CCCCCCCCCCNC(=O)[C@H]([C@@H](C)CC)n3cc(CCCCN=C(N)N)nn3)CC2)nc(N2CCN(C(=O)CCCCCCCCCCNC(=O)[C@H](CCCCN)n3cc(C)nn3)CC2)n1` [RI-GK], inhibition was half-maximal at 1.68 µM (IC50).

Turning to `C#CCOCCOCCOCCNc1nc(N2CCN(C(=O)CCCCCCCCCCNC(=O)[C@H](CCCCN)n3cc(CCO)nn3)CC2)nc(N2CCN(C(=O)CCCCCCCCCCNC(=O)[C@@H]([C@H](C)O)n3cc(C)nn3)CC2)n1` [MLS002153685], the IC50 came to 7.24 µM.

The compound `C#CCOCCOCCOCCNc1nc(N2CCN(C(=O)[C@H](CCCCN)n3cc([C@@H](N)CC(C)C)nn3)CC2)nc(N2CCN(C(=O)[C@H](Cc3cc4ccccc4[nH]3)n3cc([C@@H](N)Cc4ccc(O)cc4)nn3)CC2)n1` [SMR000391143] showed an IC50 of 2.78 µM.

The compound `CCOC(=O)C1C(COC(=O)c2cc(OC)c(OC)c(OC)c2)=NC(=O)NC1C` (stereo not given) [MLS001161811] yielded an IC50 of 8.55 µM.

`C#CCOCCOCCOCCNc1nc(N2CCN(C(=O)CCCCCCCCCCNC(=O)[C@H](CCCCN)n3cc(CCCC(=O)O)nn3)CC2)nc(N2CCN(C(=O)CCCCCCCCCCNC(=O)[C@H](CCCN=C(N)N)n3cc(C[C@@H](C)CC)nn3)CC2)n1` [EK-IR] showed an IC50 of 3.61 µM. This IC50 lies about 2.4-fold lower than the previous one.

Take `COCCNC(=S)NNC1=c2cc(C)cc(C)c2=NC1=O` [MLS000774564]: the IC50 was determined as 0.561 µM.

Values taken from BindingDB's records for doi:10.7270/Q2SB4462 (Burnham Center For Chemical Genomics, 2011).
